Reference: publication PMC3677654, “Soy Glycinin Contains a Functional Inhibitory Sequence against Muscle-Atrophy-Associated Ubiquitin Ligase Cbl-b” (International Journal of Endocrinology, 2013)
Entries after “also recorded” stand apart in the source; their conditions may differ.

What was measured:
[1] = system: Cbl-b-mediated ubiquitination of IRS-1; test: Cbl-b-mediated IRS-1 ubiquitination in transfected HEK293 cells; assay type: cell-based, human Cbl-b, rat IRS-1; conditions: 120 μM, 10 ng/mL IGF-1 for 1 h, 100 nM epoxomicin, immunoblot
Protocol: HEK293 cells were maintained in Dulbecco's modified Eagle medium (DMEM) containing 10% fetal bovine serum, 100 U/mL penicillin, and 100 μg/mL streptomycin at 37°C under 5% CO2-[…] gas mixture.
(§1) HEK293 cells (40–60% of confluence) were transfected with plasmid vectors, using Hily Max lipofection reagent (DOJINDO, Kumamoto, Japan), as described previously. The expression plasmids used in this study were pCEFL-human Cbl-b-HA, pcDNA3.1-rat IRS-1-V5, and pcDNA3-FLAG-Ubiquitin.
(§2) Immunoblot and immunoprecipitation analyses were performed as described previously. The following antibodies were used: anti-actin (Calbiochem, La Jolla, CA, USA), anti-HA.11 (BabCo, Richmond, CA, USA), anti-V5 (Invitrogen, Carlsbad, CA, USA), anti-FLAG M2 (Sigma, St. Louis, MO, USA), anti-IRS-1 (Upstate Biotechnology, Lake Placid, NY, USA), anti-Akt-1 (PharMingen International, Tokyo), and anti-phospho-S^473-Akt-1 (Cell Signaling Technology, Beverly, MA, USA).
We used the following pentapeptides or hexapeptides derived from soy: soy-glycinin-derived peptide, soy-β-conglycinin-derived peptide, lipoprotein- (LP-) derived peptide, and soy protein isolate (SPI). These peptides were kindly provided by Fuji Oil Co. (Osaka, Japan). […] A patent application was lodged for the sequence of this peptide (Pat. no. 5113346). […] These peptides were kindly provided by Otsuka Pharmaceutical Co. (Tokushima, Japan). […]

[2] = system: Cbl-b-mediated ubiquitination of IRS-1; conditions: ref [4], cited from earlier work; for Inhibitory activity on Cbl-b-mediated IRS-1 ubiquitination: in words
Description: These peptides were kindly provided by Fuji Oil Co. (Osaka, Japan). […] A patent application was lodged for the sequence of this peptide (Pat. no. 5113346).

[3] = system: interaction between Cbl-b and IRS-1; test: Interaction between Cbl-b and IRS-1 in HEK293 cells (co-immunoprecipitation); assay type: cell-based, human Cbl-b, rat IRS-1; conditions: 120 μM, anti-IRS-1 immunoprecipitates
Protocol: as §1, §2
Figure 3 Inhibitory effect of Cblin-like synthetic peptide on Cbl-b-mediated degradation and ubiquitination of IRS-1. HEK293 cells were transfected with mock vector/pCEFL-Cbl-b-HA, pcDNA3.1-rat IRS-1-V5, and pcDNA3-FLAG-Ubiquitin and then treated with 100 nM epoxomicin at 2 hours before treatment with each peptide at the indicated concentrations. One hour later, these cells were treated with 10 ng/mL IGF-1 for 1 hour. Immunoprecipitates (IP) from whole cell lysates incubated with an anti-IRS-1 antibody were subjected to immunoblot (IB) analysis for the indicated proteins. […]

[4] = system: denervated skeletal muscle of mice; conditions: ref [4], cited from earlier work
Description: Therefore, we hypothesized that foodstuffs that contain Cblin-like amino acid sequence can be used to prevent unloading-induced muscle atrophy.

In the case of DGpYMP [Cblin], the “Inhibition of IRS-1 ubiquitination” value [1] is listed as “inhibited IRS-1 ubiquitination”, the IC50 ([2]; approximate) is listed as about 120 µM and the “Inhibitory activity on Cbl-b-mediated IRS-1 ubiquitination” value [2] is listed as “exhibited inhibitory activity on Cbl-b-mediated IRS-1 ubiquitination; also recorded: inhibited Cbl-b-mediated ubiquitination and degradation of IRS-1 both in vitro and in vivo”. The “Inhibition of interaction between Cbl-b and IRS-1” value [3] was “inhibited IRS-1 ubiquitination and interaction between Cbl-b and IRS-1”, the “Prevention of denervation-induced muscle atrophy” value ([4]; mice) was “inhibited Cbl-b-mediated degradation of IRS-1, resulting in suppression of denervation-mediated muscle atrophy; also recorded: prevented denervation-induced muscle atrophy in mice” and the “Expression of MAFbx/atrogin-1” value [4] was “inhibited Cbl-b-mediated IRS-1 ubiquitination and expression of MAFbx/atrogin-1”.
For VGpYLR, the “Inhibitory activity on Cbl-b-mediated IRS-1 ubiquitination” value [2] is listed as “no inhibitory activity against Cbl-b-mediated IRS-1 ubiquitination”.
